Experimental data published in patent US20090291928A1, “COMPOSITION FOR AMELIORATION/PREVENTION OF ADVERSE SIDE EFFECT IN STEROID THERAPY” (AJINOMOTO CO., INC., priority 2006, published 2009).

Test system: dexamethasone administered rat
Assay: Muscular atrophy prophylactic effect of BCAA in dexamethasone administered rat (Example 1)
Assay type: in vivo
Conditions: effect of dexamethasone administration itself, 600 μg/kg i.p. 5 days
Protocol: Dexamethasone (600 μg/kg) was intraperitoneally administered to rats (SD; 10-11-week-old) for 5 consecutive days. An isoleucine, leucine and valine (weight ratio 1:2:1.2) blend (BCAA) administration group was orally administered with 0.75 g/kg of BCAA above simultaneously for 5 consecutive days. A vehicle group was orally administered with distilled water consecutively in the same manner.
On day 5, the rats were autopsied and analyzed for muscular strength function evaluation, blood glucose level and plasma insulin level using a feed intake, body weight profile, muscle weight, grip strength measurement apparatus.
As the control group, pair-feeding normal rats were used.

## C[C@@H]1C[C@H]2[C@@H]3CCC4=CC(=O)C=C[C@]4(C)[C@@]3(F)[C@@H](O)C[C@]2(C)[C@@]1(O)C(=O)CO [dexamethasone]
SD rats (FIG. 4)
  blood glucose level: increased
SD rats (FIG. 5)
  insulin level: increased
